Data published in US10273333B2, “Substituted polyesters by thiol-ene modification: rapid diversification for therapeutic protein stabilization” (THE REGENTS OF THE UNIVERSITY OF CALIFORNIA, priority 2014, dated 2019).

Key:
[1] = molecular target: T1, granulocyte colony-stimulating factor (G-CSF) (Homo sapiens, UniProt P09919); assay: G-CSF stabilization studies; G-CSF bioactivity by NFS-60 cell proliferation (CellTiter-Blue); assay type: cell-based; conditions: 60° C. for 30 minutes; small molecules at the concentration of stabilizing units in pCL-zwitterion80, Tween 80 and polymers at 100 weight equivalents; FIG. 74
T1 construct: host or cells: E. coli
T1 sequence (P09919 31-204 isoform P09919-2 limits assumed): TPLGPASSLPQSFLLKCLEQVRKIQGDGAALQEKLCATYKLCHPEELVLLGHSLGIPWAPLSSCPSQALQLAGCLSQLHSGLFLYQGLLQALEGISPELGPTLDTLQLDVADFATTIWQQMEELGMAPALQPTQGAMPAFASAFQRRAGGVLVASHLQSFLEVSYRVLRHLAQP
Experimental: G-CSF Stabilization Studies: G-CSF samples (25 μL) were prepared in 10 mM acetate buffer, pH 4.0 at 1 μg/mL with 100 equivalents polymer additive by weight. Samples were stored at 4° C. for 90 minutes or 60° C. for 30 minutes and then were diluted with cold RPMI-1640 medium+10% FBS (735 μL). The samples were then further diluted with RPMI-1640+10% FBS to a final concentration of 1 ng/mL. G-CSF bioactivity was then assayed in a NFS-60 mouse myelogenous leukemia lymphoblast cell line. NFS-60 cells were cultured in RPMI-1640 medium supplemented with 10% FBS and 2 ng/mL interleukin-3 (IL-3) at 37° C./5% CO2. NFS-60 cells were passaged at least three times before used in proliferation experiments. Prior to treating NFS-60 cells with G-CSF samples, NFS-60 cells were collected and resuspended in RPMI-1640 with 10% FBS (without additional growth factors). Cells were plated in the internal wells of a 96 well plate at a density of 20,000 cells per well in 50 μL of medium. G-CSF solution (50 μL) was then added to provide a final concentration of 0.5 ng/mL and total well volume of 100 μL. Following 48 h incubation at 37° C./5% CO2, CellTiter-Blue viability assay was performed to measure cell proliferation. All experimental groups were normalized to the control of the control of media alone without G-CSF addition. All p values were calculated using the independent Student's t test assuming unequal variances.
Next the ability of the polymer to protect protein activity against environmental stressors was assessed. The therapeutic protein granulocyte colony-stimulating factor (G-CSF) was selected to compare excipient efficacy due to its clinical importance. […] G-CSF is highly unstable at physiological pH and is therefore stored at pH 4.0; still at this pH the protein readily degrades upon storage or subjection to heat (Krishnan et al., 2002). […] Protein activity was determined by measuring cell proliferation in murine myeloid leukemia NFS-60 cells, which is enhanced in the presence of GCSF, and compared to the proliferation of freshly diluted protein (Shirafuji et al., 1989).

[2] = Differential scanning calorimetry (DSC): melting and crystallization enthalpy of water; assay type: physicochemical; conditions: 1 mol % of the stabilizing unit; for ΔHc (change in crystallization enthalpy of water) / ΔHm (change in melting enthalpy of water): relative to water; for Hc (crystallization enthalpy of water) / Hm (melting enthalpy of water): second heat/cool run, in J/g (unit assumed)
Experimental: Solutions of trehalose, betaine, pCL-trehalose80, and pCL-zwitterion80 were made at 1 mol % of the stabilizing unit (trehalose or betaine) and analyzed by DSC (TA Instruments Q2000). Runs were carried out using two heat/cool cycles from −40° C. to 40° C. at […] and values were taken from the second run.

[3] = molecular target: lysozyme (Gallus gallus, UniProt P00698); assay: Lysozyme stabilization against heat stress (90° C., 20 minutes), EnzChek lysozyme activity assay; assay type: biochemical; conditions: heated 90° C. for 20 minutes; 5 to 25 wt eq. excipient; FIG. 12a
Experimental: The ability of these biodegradable trehalose polymers to stabilize proteins was confirmed through heat and lyophilization stress assays. […] Therefore, these proteins were also selected to test the biodegradable trehalose polymers. First, lysozyme was stressed by heating to 90° C. for 20 minutes.
[…] Samples were further diluted to a concentration of 0.021 mg/mL (1 kU/mL) and […] aliquots were prepared in 0.5 mL LoBind Eppendorf tubes. Each aliquot was heated to 90° C. for 20 minutes at 500 rpm, then cooled to 4° C. and centrifuged for 1 minute at 10,000 rpm. Samples were stored at 4° C. until activity was evaluated all together using the EnzChek® lysozyme activity assay.
Aliquots containing 20 μL of lysozyme-glycopolymer solution were diluted to 100 μL with PBS pH 7.4. 50 μL of the resulting solution was removed and incubated with 50 μL of Micrococcus luteus labeled with FITC (1 mg/mL) at 37° C. for 30 minutes in a 96-well plate. The resulting fluorescence was measured (abs 480 nm/em 530 nm) and quantified relative to a known concentration curve. Statistics to determine significance were calculated using the Students t test; % confidence as +/−=t(standard deviation)/(number of trials)½ with p<1−% confidence/100.

[4] = tested on: β-galactosidase (β-Gal); conditions: three 12-hour desiccation (lyophilization) cycles; excipient; FIG. 12b
Experimental: The stabilization of β-Gal against lyophilization stress was also measured. […] The activity of β-Gal was determined by reaction with ortho-nitrophenol galactose (ONPG). When incubated with β-Gal, release of the yellow-colored o-nitrophenol from ONPG can be monitored at 405 nm.
The activity of β-Gal was determined by reaction with ortho-nitrophenol galactose (ONPG). When incubated with β-Gal, release of the yellow-colored o-nitrophenol from ONPG can be monitored at 405 nm.
Lyophilization studies with β-galactosidase were carried out as previously described; 8-Gal was subjected to three 12 hour lyophliization cycles before dilution. Activity was assayed by monitoring the hydrolysis of o-nitrophenol galactose (ONPG) at 405 nm.

Sequence of lysozyme (P00698 19-147): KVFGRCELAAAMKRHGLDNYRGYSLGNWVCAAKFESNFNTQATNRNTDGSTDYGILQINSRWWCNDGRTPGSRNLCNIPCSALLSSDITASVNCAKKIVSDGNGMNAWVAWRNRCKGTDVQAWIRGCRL

Row | SMILES | G-CSF activity / cell proliferation, comparison with small-molecule excipients [1] | ΔHc (change in crystallization enthalpy of water) [2] | ΔHm (change in melting enthalpy of water) [2] | Hc (crystallization enthalpy of water) [2] | Hm (melting enthalpy of water) [2] | lysozyme activity retained (of native activity) [3] | β-Gal activity maintained (of native activity) [4]
1 | CCCCCCCC/C=C\CCCCCCCC(=O)OCCOCC(OCCO)C1OCC(OCCO)C1OCCO (stereo not shown) [Tween 80, polysorbate 80] | maintained high protein activity |  |  |  |  |  | 
2 | C[N+](C)(C)CC(=O)O [betaine] | little stabilizing effect | 73.2 | −98.4 | −179 | 198.1 |  | 
3 | OC[C@H]1O[C@@](CO)(O[C@H]2O[C@H](CO)[C@@H](O)[C@H](O)[C@H]2O)[C@@H](O)[C@@H]1O [sucrose] | little stabilizing effect |  |  |  |  |  | 
4 | OC[C@H]1O[C@H](O[C@H]2O[C@H](CO)[C@@H](O)[C@H](O)[C@H]2O)[C@H](O)[C@@H](O)[C@@H]1O [trehalose] |  | 22.3 | −47.4 | −229.9 | 249.1 | not significantly different from the negative control | up to 67%
